In patent US20060078535A1, “Anticancer compounds and methods” (The Regents of the University of Michigan, priority 2004, published 2006):
Entries after “also recorded” stand apart in the source; their conditions may differ. Where no end group is shown, it is not given here. [ ]: non-standard residue; d: D form. hCys = N[C@@H](CCS)C(=O)O

Key:
[1] = tested on: SUM-52 PE breast cancer cells; experiment: SU-ECM invasion assay, SUM-52 PE breast cancer cells; type: cell-based, human; settings: SUM-52 cells
Method: (§1) Adult Strongylocentrotus purpuratus sea urchins were obtained from Pacific BioMarine, and their embryos were cultured to the early pluteus stage in artificial sea water at 15° C. SU-ECM were prepared from them by treatment with nonionic detergent and strerilized by dilution in the appropriate media.
(§2) Cells were harvested by rinsing in Hanks' balanced salt solution, followed by brief treatment with 0.25% trypsin, 0.02% EDTA, and pelleting and resuspension in the appropriate medium with or without 5% FCS at a density of about 50,000 cells per ml. […]
(§3) Invasion assays were coded and scored blindly by microscopic examination under phase contrast at 200- and 400-fold magnification. Each cell contacting an SU-ECM was scored for its position relative to the exterior or interior surfaces. […] The minimum viability of the cells in each assay was always ascertained at the time of assay by determining the fraction of spread, adherent cells on the bottom of each well scored.
(§4) An invasion frequency is defined as the fraction of cells in contact with basement membranes which were located in their interiors at the time of assay. […] Invasion frequencies were determined multiple times for each cell type assayed. For each type of cell assayed the mean and standard deviation of the invasion frequencies were calculated. […]

[2] = tested on: DU-145 prostate cancer cells; experiment: SU-ECM invasion assay, DU-145 prostate cancer cells; type: cell-based, human; settings: DU-145 cells
Method: as §1, §2, §3, §4

[3] = tested on: neonatal, human fibroblasts; experiment: SU-ECM basement membrane invasion by fibroblasts; type: cell-based; settings: with or without serum as stated
Text: Since, during wound reepithelialization, keratinocytes migrate through the connective tissue of the provisional matrix to “wall off” portions of the wound, as well as through the adjacent stroma, it is not surprising that they are also stimulated to migrate through the matrix of SU-ECM invasion substrates by the PHSRN (SEQ ID NO: 1) sequence. […]
as §3, §4

keratinocytes = experiment: SU-ECM invasion by keratinocytes; type: cell-based; settings: serum-free SU-ECM
Text: Since, during wound reepithelialization, keratinocytes migrate through the connective tissue of the provisional matrix to “wall off” portions of the wound, as well as through the adjacent stroma, it is not surprising that they are also stimulated to migrate through the matrix of SU-ECM invasion substrates by the PHSRN (SEQ ID NO: 1) sequence. […] Recruitment of fibroblasts or monocytes/macrophages whose paracrine, regulatory effects on a variety of neighboring cells are required for the early stages of wound healing is contemplated as a highly efficient and effective way to stimulate the cascade of regulatory interactions involved in wound healing because these cells will secrete the active factors or cytokines in the correct temporal sequences and spatial locations to ensure their optimal activities. Because it efficiently induces keratinocyte migration through the extracellular matrix in vitro, the PHSRN (SEQ ID NO: 1) peptide is also likely to stimulate wound reepithelialization directly. The use of the PHSRN (SEQ ID NO: 1) peptide or structurally related molecules according to the present invention is to stimulate the entry of cells such as fibroblasts and monocyte/macrophages into the provisional matrix of a wound, so that the entering cells themselves secrete the factors and cytokines active in inducing or potentiating wound healing. […]

[4] = tested on: DU-145 metastatic prostate cancer cells; experiment: Invasion of fibronectin-depleted Matrigel by DU-145 cells; type: cell-based, human; settings: 0.5 μl/ml peptide added to gelatin-panned Matrigel
Method: This example describes a purification approach for removal of plasma fibronectin (and/or cellular fibronectin) from a substrate (Matrigel). In this example, removal was attempted by successive panning on gelatin. Eight wells of 24-well plate were coated with a 2% gelatin solution (the gelatin was obtained from Becton Dickinson Labware, Catalog #11868). The wells were filled with the gelatin solution which had been heated to 50° C. and incubated for 3 minutes. Then the solution was removed and the wells were allowed to air dry. Following drying, the wells were thoroughly rinsed with ddH2O followed by two rinses with PBS. The plates were again allowed to dry; thereafter they were stored at −20° C. until use. Matrigel was thawed on ice and then added to one of the wells of a gelatin-coated plate (between 800 μl and 1 ml of Matrigel was added to a well of a 24-well plate). The plate was placed in a bucket of ice in a […] room on an orbital shaker where the Matrigel was incubated in the well for two hours (although overnight incubation can be used). Following the incubation, the Matrigel was moved from the first well to a second well and then incubated for two hours under the same conditions. This process was repeated until the Matrigel had been incubated on all eight wells of the gelatin-coated plate.
Following the depletion of the Matrigel, it was collected in Eppendorf tubes. […]

[5] = tested on: normal, neonatal fibroblasts; experiment: Invasion of gelatin- and antibody-depleted Matrigel by fibroblasts; type: cell-based; settings: gelatin plus antibody panned Matrigel
Method: Anti-fibronectin antibody-coated wells: Wells of a 24-well plate were coated with an anti-fibronectin antibody. A mouse monoclonal antibody to human fibronectin was obtained from Oncogene Science (Catalog #CP13). Each well was incubated with 1 ml of antibody at a concentration of 30 μl/ml for 2 hours at room temperature. Each well was then incubated with a solution of 3% BSA in PBS for 2 hours at room temperature. Following the two incubation periods, the wells were thoroughly washed with PBS and stored at −20° C. until use.
Depleting Matrigel of Fibronectin: Matrigel was panned over eight gelatin-coated wells (as described above in Example 2) to remove most of the fibronectin and its fragments. Thereafter, the Matrigel was placed in the antibody-coated wells to remove any remaining fragments of fibronectin which contain the cell-binding domain but not the gelatin-binding domain. The Matrigel was incubated in an ice bucket on an orbital shaker at 4° C. for 2 hours. Once the Matrigel was depleted, it was collected in Eppendorf tubes. The firbonectin-depleted Matrigel was plated on a 48-well plate (150 μl/well), sterilized under a UV light for 10 minutes and incubated at 37° C. overnight. The Matrigel formed a gel and the following day, cells were added to the wells. […]

MatLyLu (MLL) cells = experiment: SU-ECM invasion assay, rat MatLyLu (MLL) prostate carcinoma cells; type: cell-based; settings: 10% FCS, varying concentrations
Method: as §1, with “media. […]” for “media.”
as §3, §4

metastatic disease = settings: human, in vivo
Method: Livant et al., “The PHSCN Sequence As An Anti-Invasive For Human Prostate Carcinoma Cells And As An Anti-Tumorigenic And Anti-Metastatic Agent For Rat Prostate Cancer” Cancer Research 60:309-320 (2000). […] In another embodiment, however, PHSCN (SEQ ID NO:86) peptide may also induce apoptosis. Furthermore, thrice-weekly PHSCN (SEQ ID NO:86) peptide intravenous doses (0.1 to 0.5 mg/kg) prevent cancer progression in metastatic ovarian cancer and metastatic prostate cancer patients in the Phase I clinical trial, for over a 6 to 10 month period.

[6] = tested on: DU 145 human prostate carcinoma; settings: mouse, in vivo; cited from earlier work
[7] = biological target: T1, immobilized α5β1 integrin (UniProt P08648 42-1049; P05556 21-798); experiment: saturation binding of PHSCNGGK(biotin) to immobilized α5β1 integrin, read as optical density at 490 nm (FIG. 11)
T1 construct: also called α5β1 integrin receptor; α5β1 integrin fibronectin receptor
T1 sequence (P08648 42-1049, chain 1 of 2): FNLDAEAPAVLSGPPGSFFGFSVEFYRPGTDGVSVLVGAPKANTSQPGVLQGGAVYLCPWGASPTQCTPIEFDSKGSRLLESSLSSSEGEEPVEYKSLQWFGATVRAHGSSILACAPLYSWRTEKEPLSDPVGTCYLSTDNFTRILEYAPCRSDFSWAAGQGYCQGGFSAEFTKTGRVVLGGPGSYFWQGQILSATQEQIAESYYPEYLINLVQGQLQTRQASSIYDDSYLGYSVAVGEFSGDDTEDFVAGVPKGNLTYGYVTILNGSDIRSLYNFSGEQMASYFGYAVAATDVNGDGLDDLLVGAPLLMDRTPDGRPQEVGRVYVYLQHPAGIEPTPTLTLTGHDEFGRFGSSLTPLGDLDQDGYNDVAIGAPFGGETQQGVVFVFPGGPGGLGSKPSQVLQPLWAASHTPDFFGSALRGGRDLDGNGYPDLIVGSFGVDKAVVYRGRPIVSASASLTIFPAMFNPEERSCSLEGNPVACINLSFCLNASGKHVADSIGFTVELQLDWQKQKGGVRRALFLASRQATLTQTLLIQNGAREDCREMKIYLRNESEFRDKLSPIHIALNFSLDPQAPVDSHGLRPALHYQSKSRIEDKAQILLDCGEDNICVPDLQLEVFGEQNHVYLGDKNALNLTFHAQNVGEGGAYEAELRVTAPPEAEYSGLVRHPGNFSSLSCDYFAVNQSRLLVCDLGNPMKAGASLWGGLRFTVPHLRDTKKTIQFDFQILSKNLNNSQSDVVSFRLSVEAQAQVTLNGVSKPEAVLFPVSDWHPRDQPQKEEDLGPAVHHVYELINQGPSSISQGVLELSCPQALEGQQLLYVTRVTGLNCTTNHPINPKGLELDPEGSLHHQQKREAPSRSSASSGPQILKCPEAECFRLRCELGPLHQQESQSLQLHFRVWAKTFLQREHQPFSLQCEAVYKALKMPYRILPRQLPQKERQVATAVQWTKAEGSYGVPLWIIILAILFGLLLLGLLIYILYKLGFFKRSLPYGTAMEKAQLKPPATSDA
T1 sequence (P05556 21-798, chain 2 of 2): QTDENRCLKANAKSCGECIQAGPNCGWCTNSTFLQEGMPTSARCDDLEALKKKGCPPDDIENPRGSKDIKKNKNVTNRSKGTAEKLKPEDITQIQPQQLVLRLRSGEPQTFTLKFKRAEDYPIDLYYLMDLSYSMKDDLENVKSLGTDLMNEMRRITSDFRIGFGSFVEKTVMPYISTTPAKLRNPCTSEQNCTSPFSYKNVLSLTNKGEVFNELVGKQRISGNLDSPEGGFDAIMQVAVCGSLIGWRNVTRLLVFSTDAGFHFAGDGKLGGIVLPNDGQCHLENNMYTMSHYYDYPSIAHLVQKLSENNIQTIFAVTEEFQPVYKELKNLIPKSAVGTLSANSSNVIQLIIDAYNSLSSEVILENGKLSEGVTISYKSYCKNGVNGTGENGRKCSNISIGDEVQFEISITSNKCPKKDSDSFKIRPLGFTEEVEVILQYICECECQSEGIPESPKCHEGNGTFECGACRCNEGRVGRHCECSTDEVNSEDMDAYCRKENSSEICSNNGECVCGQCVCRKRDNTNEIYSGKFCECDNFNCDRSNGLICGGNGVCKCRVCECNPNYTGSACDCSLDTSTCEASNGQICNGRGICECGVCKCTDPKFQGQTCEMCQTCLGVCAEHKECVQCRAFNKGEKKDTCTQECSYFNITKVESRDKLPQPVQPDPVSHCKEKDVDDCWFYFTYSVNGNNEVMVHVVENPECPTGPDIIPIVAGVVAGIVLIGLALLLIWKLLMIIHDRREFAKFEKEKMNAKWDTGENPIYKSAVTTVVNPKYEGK

Pro-His-Ser-Arg-Asn (PHSRN)
induction of invasion of SU-ECM [1]: induced to invade the SU-ECM substrate | induction of invasion of SU-ECM [2]: induced to invade the SU-ECM substrate | fibroblast invasion of SU-ECM basement membranes [3]: induced with the PHSRN (SEQ ID NO:1) peptide to invade serum-free SU-ECM | keratinocyte invasion (keratinocytes): stimulate keratinocyte invasion of serum-free SU-ECM | DU-145 invasiveness on depleted Matrigel [4]: sufficient to restore the full DU-145 invasiveness | fibroblast invasiveness on depleted Matrigel [5]: invasiveness of the fibroblasts could be induced

PHS(hC)N: homo-cysteine containing peptide (PHS[hCys]N)
inhibition of serum-induced invasion (MatLyLu (MLL) cells): substantially inhibits invasion at lower concentrations; also recorded: completely inhibits invasion at higher concentrations

Ac-PHSCN-NH2 (N-terminus and C-terminus assumed) [PHSCN, Pro-His-Ser-Cys-Asn]
total treatment-emergent serious adverse events (metastatic disease): 11 | tolerability of treated mice [6]: no obvious loss of vigor or difficulty in healing

intact plasma fibronectin: purified bovine plasma fibronectin (Sigma)
fibroblast invasion of SU-ECM basement membranes [3]: fails to stimulate fibroblast invasion

Ac-PHSCNGG-{K(biotin)-NH2} (also: further groups not given here, also called biotinylated PHSCN peptide) [Ac-PHSCNGGK(biotin)-NH2]
Kd [7]: 272 nM
